# From PubChem BioAssay AID1259407 (Chemical Carcinogenesis Research Information System (CCRIS), 2018)
# The source made the active and inactive calls. The rule behind the calls is not given here.
# Test system: CCRIS mutagenicity, Ames/micronucleus/aberration tests
# Experiment: CCRIS mutagenicity studies
# [1] = Test System: AMES SALMONELLA TYPHIMURIUM, Strain/Indicator: TA98, Metabolic Activation: NONE, Method: PREINCUBATION
# [2] = Test System: AMES SALMONELLA TYPHIMURIUM, Strain/Indicator: TA100, Metabolic Activation: NONE, Method: PREINCUBATION
# [3] = Test System: AMES SALMONELLA TYPHIMURIUM, Strain/Indicator: TA98, Metabolic Activation: NONE, Method: STANDARD PLATE
# [4] = Test System: AMES SALMONELLA TYPHIMURIUM, Strain/Indicator: TA100, Metabolic Activation: NONE, Method: STANDARD PLATE
# [5] = Test System: AMES SALMONELLA TYPHIMURIUM, Strain/Indicator: TA1537, Metabolic Activation: NONE, Method: STANDARD PLATE
structure (smiles),measurement,setting,value
CC(C)CC(=O)CC(C)C,mutagenic call,"Test System: AMES SALMONELLA TYPHIMURIUM, Strain/Indicator: TA98, Metabolic Activation: HAMSTER, LIVER, S-9, AROCLOR 1254 (10%), Method: PREINCUBATION",inactive; negative
same,mutagenic call,[1],inactive; negative
same,mutagenic call,"Test System: AMES SALMONELLA TYPHIMURIUM, Strain/Indicator: TA98, Metabolic Activation: RAT, LIVER, S-9, AROCLOR 1254 (10%), Method: PREINCUBATION",inactive; negative
same,mutagenic call,"Test System: AMES SALMONELLA TYPHIMURIUM, Strain/Indicator: TA100, Metabolic Activation: HAMSTER, LIVER, S-9, AROCLOR 1254 (10%), Method: PREINCUBATION",inactive; negative
same,mutagenic call,[2],inactive; negative
same,mutagenic call,"Test System: AMES SALMONELLA TYPHIMURIUM, Strain/Indicator: TA100, Metabolic Activation: RAT, LIVER, S-9, AROCLOR 1254 (10%), Method: PREINCUBATION",inactive; negative
same,mutagenic call,"Test System: AMES SALMONELLA TYPHIMURIUM, Strain/Indicator: TA1535, Metabolic Activation: HAMSTER, LIVER, S-9, AROCLOR 1254 (10%), Method: PREINCUBATION",inactive; negative
same,mutagenic call,"Test System: AMES SALMONELLA TYPHIMURIUM, Strain/Indicator: TA1535, Metabolic Activation: HAMSTER, LIVER, S-9, AROCLOR 1254 (50%), Method: PREINCUBATION",inactive; negative
same,mutagenic call,"Test System: AMES SALMONELLA TYPHIMURIUM, Strain/Indicator: TA1535, Metabolic Activation: NONE, Method: PREINCUBATION",inactive; negative
same,mutagenic call,"Test System: AMES SALMONELLA TYPHIMURIUM, Strain/Indicator: TA1535, Metabolic Activation: RAT, LIVER, S-9, AROCLOR 1254 (10%), Method: PREINCUBATION",inactive; negative
same,mutagenic call,"Test System: AMES SALMONELLA TYPHIMURIUM, Strain/Indicator: TA1535, Metabolic Activation: RAT, LIVER, S-9, AROCLOR 1254 (50%), Method: PREINCUBATION",inactive; negative
same,mutagenic call,"Test System: AMES SALMONELLA TYPHIMURIUM, Strain/Indicator: TA1537, Metabolic Activation: HAMSTER, LIVER, S-9, AROCLOR 1254 (10%), Method: PREINCUBATION",inactive; negative
same,mutagenic call,"Test System: AMES SALMONELLA TYPHIMURIUM, Strain/Indicator: TA1537, Metabolic Activation: HAMSTER, LIVER, S-9, AROCLOR 1254 (50%), Method: PREINCUBATION",inactive; negative
same,mutagenic call,"Test System: AMES SALMONELLA TYPHIMURIUM, Strain/Indicator: TA1537, Metabolic Activation: NONE, Method: PREINCUBATION",inactive; negative
same,mutagenic call,"Test System: AMES SALMONELLA TYPHIMURIUM, Strain/Indicator: TA1537, Metabolic Activation: RAT, LIVER, S-9, AROCLOR 1254 (10%), Method: PREINCUBATION",inactive; negative
same,mutagenic call,"Test System: AMES SALMONELLA TYPHIMURIUM, Strain/Indicator: TA1537, Metabolic Activation: RAT, LIVER, S-9, AROCLOR 1254 (50%), Method: PREINCUBATION",inactive; negative
O=CN(O)c1ccc(Cl)cc1,mutagenic call,[3],inactive; negative
same,mutagenic call,"Test System: AMES SALMONELLA TYPHIMURIUM, Strain/Indicator: TA98, Metabolic Activation: RAT, LIVER, S-9, AROCLOR 1254, Method: STANDARD PLATE",active; positive
same,mutagenic call,[4],inactive; negative
same,mutagenic call,"Test System: AMES SALMONELLA TYPHIMURIUM, Strain/Indicator: TA100, Metabolic Activation: RAT, LIVER, S-9, AROCLOR 1254, Method: STANDARD PLATE",active; positive
O=C(N[C@@H](Cc1ccc(Cl)cc1)C(=O)O)OCc1ccccc1,mutagenic call,"Test System: AMES SALMONELLA TYPHIMURIUM, Strain/Indicator: TA98, Metabolic Activation: NONE",inactive; negative
same,mutagenic call,"Test System: AMES SALMONELLA TYPHIMURIUM, Strain/Indicator: TA100, Metabolic Activation: NONE",active; positive
same,mutagenic call,"Test System: AMES SALMONELLA TYPHIMURIUM, Strain/Indicator: TA1535, Metabolic Activation: NONE",inactive; negative
same,mutagenic call,"Test System: AMES SALMONELLA TYPHIMURIUM, Strain/Indicator: TA1537, Metabolic Activation: NONE",inactive; negative
same,mutagenic call,"Test System: B. SUBTILIS, Strain/Indicator: BD190 REC, Metabolic Activation: NONE, Method: SPOT TEST",active; positive
same,mutagenic call,"Test System: E. COLI, Strain/Indicator: AB2462 UVRA, Metabolic Activation: NONE, Method: SPOT TEST",active; positive
same,mutagenic call,"Test System: E. COLI, Strain/Indicator: WP6 POLA, Metabolic Activation: NONE, Method: SPOT TEST",inactive; negative
Nc1cc([N+](=O)[O-])c(C(=O)O)c([N+](=O)[O-])c1,mutagenic call,"End Point: In vitro chromosomal aberrations, Test System: V79 Chinese hamster fibroblasts, Metabolic Activation: None",inactive; negative
same,mutagenic call,"End Point: In vitro micronucleus, Test System: HepG2 human hepatoma cells, Metabolic Activation: None",active; positive
same,mutagenic call,"Test System: Ames Salmonella typhimurium, Strain/Indicator: TA98, Metabolic Activation: None, Method: Standard plate",active; positive
same,mutagenic call,"Test System: Ames Salmonella typhimurium, Strain/Indicator: TA98, Metabolic Activation: Rat, Liver, S-9, Method: Standard plate",active; positive
same,mutagenic call,"Test System: Ames Salmonella typhimurium, Strain/Indicator: TA98NR, Metabolic Activation: None, Method: Standard plate","active; positive, ta98nr is the nitroreductase-deficient derivative of ta98."
same,mutagenic call,"Test System: Ames Salmonella typhimurium, Strain/Indicator: TA100, Metabolic Activation: None, Method: Standard plate",active; positive
same,mutagenic call,"Test System: Ames Salmonella typhimurium, Strain/Indicator: TA100, Metabolic Activation: Rat, Liver, S-9, Method: Standard plate",active; positive
[N-]=[N+]=Nc1ccc2c(Nc3ccc(NS(=O)(=O)CCCN)cc3)c3ccc(N=[N+]=[N-])cc3nc2c1,mutagenic call,[5],active; positive
CC1CN1P(=O)(N1CC1C)N1CC1C (stereo not drawn),mutagenic call,"Test System: AMES SALMONELLA TYPHIMURIUM, Strain/Indicator: G46, Metabolic Activation: HOST MEDIATED, Method: STANDARD PLATE",active; positive
CCc1cccc(CC)c1N(COC)C(=O)CCl,mutagenic call,"End Point: IN VITRO CHROMOSOMAL ABERRATIONS, Test System: PERIPHERAL BLOOD HUMAN LYMPHOCYTES, Metabolic Activation: NONE",inactive; negative; chromosomal aberrations not increased but chromatid-type aberrations i
same,mutagenic call,"End Point: IN VITRO MICRONUCLEUS, Test System: HUMAN PERIPHERAL BLOOD LYMPHOCYTES, Metabolic Activation: NONE",active; positive; result at highest dose; variation among donors
same,mutagenic call,"End Point: IN VITRO MICRONUCLEUS, Test System: HUMAN PERIPHERAL BLOOD LYMPHOCYTES, Metabolic Activation: S-9",active; positive; result at highest dose; variation among donors
same,mutagenic call,"End Point: IN VITRO MICRONUCLEUS, Test System: PERIPHERAL BLOOD HUMAN LYMPHOCYTES, Metabolic Activation: NONE",active; positive; variation among donors
same,mutagenic call,[1],inactive; negative
same,mutagenic call,[3],inactive; negative
same,mutagenic call,"Test System: AMES SALMONELLA TYPHIMURIUM, Strain/Indicator: TA98, Metabolic Activation: RAT, LIVER, MICROSOMES, PHENOBARBITAL, Method: PREINCUBATION",inactive; negative
same,mutagenic call,"Test System: AMES SALMONELLA TYPHIMURIUM, Strain/Indicator: TA98, Metabolic Activation: S-9, Method: STANDARD PLATE",inactive; negative
same,mutagenic call,[2],inactive; negative
same,mutagenic call,[4],inactive; negative
same,mutagenic call,"Test System: AMES SALMONELLA TYPHIMURIUM, Strain/Indicator: TA100, Metabolic Activation: RAT OLFACTORY S-9, Method: PREINCUBATION",active; positive
same,mutagenic call,"Test System: AMES SALMONELLA TYPHIMURIUM, Strain/Indicator: TA100, Metabolic Activation: RAT RESPIRATORY S-9, Method: PREINCUBATION",inactive; negative
same,mutagenic call,"Test System: AMES SALMONELLA TYPHIMURIUM, Strain/Indicator: TA100, Metabolic Activation: RAT, LIVER, MICROSOMES, PHENOBARBITAL, Method: PREINCUBATION",inactive; negative
same,mutagenic call,"Test System: AMES SALMONELLA TYPHIMURIUM, Strain/Indicator: TA100, Metabolic Activation: RAT, LIVER, S-9, Method: PREINCUBATION",active; positive
same,mutagenic call,"Test System: AMES SALMONELLA TYPHIMURIUM, Strain/Indicator: TA100, Metabolic Activation: S-9, Method: STANDARD PLATE",inactive; negative
same,mutagenic call,"Test System: AMES SALMONELLA TYPHIMURIUM, Strain/Indicator: TA1535, Metabolic Activation: NONE, Method: STANDARD PLATE",inactive; negative
same,mutagenic call,"Test System: AMES SALMONELLA TYPHIMURIUM, Strain/Indicator: TA1535, Metabolic Activation: S-9, Method: STANDARD PLATE",inactive; negative
same,mutagenic call,[5],inactive; negative
same,mutagenic call,"Test System: AMES SALMONELLA TYPHIMURIUM, Strain/Indicator: TA1537, Metabolic Activation: S-9, Method: STANDARD PLATE",inactive; negative
same,mutagenic call,"Test System: AMES SALMONELLA TYPHIMURIUM, Strain/Indicator: TA1538, Metabolic Activation: NONE, Method: STANDARD PLATE",active; positive
same,mutagenic call,"Test System: AMES SALMONELLA TYPHIMURIUM, Strain/Indicator: TA1538, Metabolic Activation: S-9, Method: STANDARD PLATE",inactive; negative
same,mutagenic call,"Test System: MOUSE LYMPHOMA, Strain/Indicator: 3.7.2C (TK+/TK-), Metabolic Activation: RAT OLFACTORY S-9, Method: SUSPENSION/PLATE",active; positive
